Earlier results, collected in PMC7182039 (Journal of medicinal chemistry, 2020).

Tested on: schistosomes
Settings: cited from earlier work

c1cc([C@H]2CC[C@]3(CC2)OO[C@]2(O3)C3CC4CC(C3)CC2C4)ccc1OCCN1CCOCC1 [Compound 1]
antischistosomal activity: no antischistosomal activity
